Experimental data as given in US20210196607A1 (HESED BIO CO., LTD., priority 2017, published 2021).

Legend:
cells = assay: Cytotoxicity experiment (MTT experiment); format: cell-based
Experimental: 1-1: Cell Culture HEK 293A and B16F10 cells used, Dulbecco's Modified Eagle's Medium (DMEM) containing 10% fetal bovine serum and 1% penicillin/streptomycin as a nutrient source, and were incubated in an incubator maintained at 37° C. under 5% CO2.
This is an experiment for measuring the number of living cells through conversion of 3-(4,5-dimethyl-thiazol-2-yl)-2,5-diphenyl tetrazolium bromide (MTT) into formazan with a purple color, by reduction in cells. Cells were seeded into a 96-well cell culture plate at a density of 3×10^3. […] Thereafter, the culture medium was removed, and a solvent for dissolving crystallized formazan was added to dissolve the sample, and the absorbance at 570 nm of the dissolved sample was measured.

tyrosinase [1] = target: T1, tyrosinase (Mus musculus, UniProt P11344); assay: Degree of tyrosinase activity at cellular level; format: cell-based; details: B16F10 cells
T1 construct: The obtained cells were disrupted and then centrifuged to separate a supernatant; endogenous in cells; host or cells: B16F10 mouse melanoma cells, stimulated with melanocyte stimulating hormone
T1 sequence (P11344 19-533): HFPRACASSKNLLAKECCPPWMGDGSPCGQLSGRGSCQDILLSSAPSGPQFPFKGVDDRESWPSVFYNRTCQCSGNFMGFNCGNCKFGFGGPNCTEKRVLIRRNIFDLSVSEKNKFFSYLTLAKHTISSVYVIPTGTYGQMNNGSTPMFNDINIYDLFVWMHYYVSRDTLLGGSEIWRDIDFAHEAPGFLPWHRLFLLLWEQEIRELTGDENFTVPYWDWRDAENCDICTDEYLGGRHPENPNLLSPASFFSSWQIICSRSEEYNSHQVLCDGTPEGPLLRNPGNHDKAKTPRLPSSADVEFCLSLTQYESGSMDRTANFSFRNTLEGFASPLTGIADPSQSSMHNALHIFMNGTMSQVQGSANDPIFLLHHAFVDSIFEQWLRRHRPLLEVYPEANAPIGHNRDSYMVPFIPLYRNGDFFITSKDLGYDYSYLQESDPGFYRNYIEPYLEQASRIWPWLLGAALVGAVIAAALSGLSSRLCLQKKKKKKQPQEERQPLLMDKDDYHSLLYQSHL
Experimental: B16F10 mouse melanoma cells were seeded into a 6-well cell culture plate at a density of 1×10^5/well. […] The obtained cells were disrupted and then centrifuged to separate a supernatant. The protein concentration of the supernatant was measured, and 50 μg of protein per sample was standardized into a volume of 50 μl and placed on a 96-well plate. Then, 100 μl of 0.1% L-DOPA was added as a reaction substrate to each sample and allowed to react at 37° C. for 1 hour, and then absorbance at 475 nm was measured.

[2] = system: B16F10 mouse melanoma cells; assay: Measuring amount of melanin; format: cell-based
Experimental: B16F10 mouse melanoma cells were seeded into a 6-well cell culture plate at a density of 1×10^5/well. […] The obtained cells were disrupted and then centrifuged to obtain a cell precipitate, and 1 N NaOH containing 10% DMSO was added thereto. Thereafter, the resulting precipitate was allowed to react at 60° C. for 1 hour, and absorbance at 405 nm was measured.

tyrosinase [3] = assay: Tyrosinase protein and mRNA amount in MSH-treated B16F10 cells; format: cell-based, mouse
Excerpt: Antibodies were purchased from respective manufacturers. Tyrosinase, 14-3-3ζ, LAMIN B (Santa Cruz), MITF (Abcam), phospho-MITF (Sigma), ERK, phospho-ERK (Cell Signaling), ACTIN (MPBIO), and GAPDH (Bethyl) were used.
(§1) Total RNA was extracted from each group of cells using a TRI reagent (Molecular Research Center). Extracted RNA was reverse transcribed using an ImProm™ Reverse Transcription System (Promega), followed by measurement using a StepOnePlus™ Real-Time PCR System (Applied Biosystems).

[4] = system: heat shock protein 70 (HSP70); assay: Expression of heat shock protein 70 under heat stress; format: cell-based, mouse; details: B16F10 cells
Experimental: Total protein was extracted from the cells using a THE buffer, and then the amount thereof was measured using a Bradford reagent. In addition, proteins were separated by SDS-PAGE and identified using antibodies, followed by quantitative analysis. Antibodies were purchased from respective manufacturers, and HSP70 (Santa Cruz) and actin (MPBIO) were used.
as §1

[5] = target: T2, ERα ligand-binding domain (Homo sapiens, UniProt P03372); assay: Estrogen receptor reporter (GAL4 luciferase) experiment; format: cell-based
T2 construct: expressed in transfected cells; host or cells: HEK 293A cells
Experimental: To deliver a DNA plasmid into HEK 293A cells, a microporator (Invitrogen/Neon® Transfection System) was used. At one time, 1 μg of a reporter plasmid was delivered into 1 million cells. The DNA-delivered cells were cultured in a general culture medium. The activities of Renilla and Firefly luciferases were measured using a Dual-Luciferase® Reporter Assay System (Promega). To measure the activity of an estrogen receptor (ER) reporter, a system, in which, when a specific material binds to the ER ligand domain, GAL4 binds to a specific DNA sequence, resulting in expression of the Firefly luciferase, was used, and the Renilla luciferase was delivered together to calibrate DNA transfer efficiency. The activity of the estrogen receptor reporter was determined by dividing a value of the Firefly luciferase by a value of the Renilla luciferase. […] When HEK 293A cells to which reporter DNAs were delivered were treated with 50 μM of the extract, the expression of the luciferases was nearly 3.5 times higher than that of the control (see FIG. 5B).

[6] = system: estrogen receptor signaling pathway; assay: mRNA of estrogen receptor target genes; format: cell-based; details: HEK 293A cells (FIG. 5D)
Excerpt: as §1

[7] = 100 nM melanocyte stimulating hormone for 48 hours
[8] = increasing amount of 8-methoxybutin (FIG. 2D)

T2 sequence (P03372 311-547 limits assumed): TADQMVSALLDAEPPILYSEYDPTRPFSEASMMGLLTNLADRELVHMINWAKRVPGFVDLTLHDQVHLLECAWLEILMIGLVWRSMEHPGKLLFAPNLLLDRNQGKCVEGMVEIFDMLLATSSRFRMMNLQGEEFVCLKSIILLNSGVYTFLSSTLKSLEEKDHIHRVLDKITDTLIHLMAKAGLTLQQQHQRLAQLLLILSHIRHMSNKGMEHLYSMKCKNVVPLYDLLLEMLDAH
T2 sequence (P04386 1-147 partner limits assumed): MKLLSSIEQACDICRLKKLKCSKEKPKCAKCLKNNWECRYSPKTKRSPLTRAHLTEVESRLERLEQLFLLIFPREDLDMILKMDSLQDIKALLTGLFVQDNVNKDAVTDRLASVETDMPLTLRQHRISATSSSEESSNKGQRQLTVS

- decrease in tyrosinase activity (tyrosinase [1]; [7]): ≥ 110%
- expression of the luciferases relative to the control ([5]; HEK 293A cells with reporter DNAs, 50 μM (FIG. 5B)): ~3.5 times
- expression of luciferases depending on concentration ([5]; HEK 293A cells, concentration increased from 10 μM (FIG. 5C)): statistically significant increase
- amount of mRNA of target genes [6]: increased
Structure (SMILES): COc1c(O)ccc2c1OC(c1ccc(O)c(O)c1)CC2=O (centres unmarked) [8-methoxybutin, 2-(3,4-dihydroxyphenyl)-7-hydroxy-8-methoxy-2,3-dihydro-4H-1-benzopyran-4-one]
- cell survival rate (cells; 24 hours treatment, high as well as low concentration): about 100%
- cytotoxicity (cells; high concentration, 100 μM): cytotoxicity was hardly observed
- tyrosinase activity with increasing amount of compound (tyrosinase [1]; [8]): in proportion to the amount of 8-methoxybutin
- decrease in melanin synthesis amount [2, 7]: ≥ 50%
- melanin synthesis with increasing amount of compound [2, 8]: in proportion to the amount of 8-methoxybutin
- amount of tyrosinase protein (tyrosinase [3]; B16F10 cells treated with melanocyte stimulating hormone (FIG. 2B)): remarkable decrease
- tyrosinase mRNA level (tyrosinase [3]; B16F10 cells treated with melanocyte stimulating hormone (FIG. 2C)): confirmed at an mRNA level
- amount of tyrosinase protein with increasing amount of compound (tyrosinase [3]; B16F10 cells, increasing amount of 8-methoxybutin (FIG. 2E)): reduced in proportion to the amount of 8-methoxybutin
- amount of heat shock protein 70 mRNA compared to the control ([4]; heat stress (FIG. 3B)): larger amount
- amount of heat shock protein 70 (HSP70) compared to a control ([4]; heat-applied condition 42° C. for 1 hour, DMSO control (FIG. 3A)): increased at least three times
